# Experimental data: patent publication US7291612B2, “Immunomodulatory compounds” (Active Biotech A.B., priority 2002, dated 2007)
# Where a name gives a salt, the structure may show the parent alone.
# Biological target: T1, CD80-CD28 interaction (Homo sapiens, UniProt P33681)
# T1 construct: mouse Fab fragment (fusion partner)
# T1 sequence (P33681 35-242 limits assumed): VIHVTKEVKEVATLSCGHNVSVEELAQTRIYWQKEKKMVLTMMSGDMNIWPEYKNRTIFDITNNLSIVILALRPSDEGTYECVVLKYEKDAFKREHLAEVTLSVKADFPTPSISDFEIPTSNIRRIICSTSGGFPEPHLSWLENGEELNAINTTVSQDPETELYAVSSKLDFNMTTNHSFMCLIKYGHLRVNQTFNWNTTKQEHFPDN
# Assay: cell free Homogenous Time Resolved Fluorescence (HTRF) assay, inhibition of the CD80-CD28 interaction
# Assay type: binding
# Conditions: 4 hours at room temperature, read-out: Activity (EC50 in summary form)
# Protocol: The examples described above were tested in a cell free Homogenous Time Resolved Fluorescence (HTRF) assay to determine their activity as inhibitors of the CD80-CD28 interaction.
# In the assay, europium and allophycocyanin (APC) are associated with CD28 and CD80 indirectly (through antibody linkers) to form a complex, which brings the europium and APC into close proximity to generate a signal. The complex comprises the following six proteins: fluorescent label 1, linker antibody 1, CD28 fusion protein, CD80 fusion protein, linker antibody 2, and fluorescent label 2. The table below describes these reagents in greater detail.
# On formation of the complex, europium and APC are brought into proximity and a signal is generated.
# Non-specific interaction was measured by substituting a mouse Fab fragment (C215) for the CD80 mouse Fab fragment fusion protein (1.9 μg/ml). The assay was carried out in black 384 well plates in a final volume of 30 μl. Assay buffer: 50 mM Tris-HCl, 150 mM NaCl pH7.8, containing 0.1% BSA (w/v) added just prior to use.
# Compounds were added to the above reagents in a concentration series ranging between 100 μM-1.7 nM. The reaction was incubated for 4 hours at room temperature. Dual measurements were made using a Wallac Victor 1420 Multilabel Counter. First measurement: excitation 340 nm, emission 665 nm, delay 50 μs, window time 200 μs. second measurement: excitation 340 nm, emission 615 nm, delay 50 μs, window time 200 μs. Counts were automatically corrected for fluorescence crossover, quenching and background.
row,SMILES,EC50 [nM]
1,"O=C(NCc1ccccc1)c1cccc(-n2nc3c4cccc(F)c4[nH]cc-3c2=O)c1 [Example 52, N-Benzyl-3-(6-fluoro-3-oxo-3,5-dihydro-pyrazolo[4,3-c]-quinolin-2-yl)-benzamide]",> 10000
2,CN(C)CCCN(C)C(=O)c1cccc(-n2nc3c4cccc(F)c4[nH]cc-3c2=O)c1 [Example 53],> 10000
3,CN(C)CCCNC(=O)c1cccc(-n2nc3c4cccc(F)c4[nH]cc-3c2=O)c1 [Example 54],1000 to 10000
4,N[C@H]1CC[C@H](NC(=O)c2cccc(-n3nc4c5cccc(F)c5[nH]cc-4c3=O)c2)CC1 [Example 55],> 10000
5,O=C(NCCCCN1CCCC1)c1cccc(-n2nc3c4cccc(F)c4[nH]cc-3c2=O)c1 [Example 57],1000 to 10000
6,COC(=O)CNC(=O)c1cccc(-n2nc3c4cccc(F)c4[nH]cc-3c2=O)c1 [Example 61],> 10000
7,C#CCNC(=O)c1cccc(-n2nc3c4cccc(F)c4[nH]cc-3c2=O)c1 [Example 62],1000 to 10000
8,CN(Cc1ccccc1)C(=O)c1cccc(-n2nc3c4cccc(F)c4[nH]cc-3c2=O)c1 [Example 63],1000 to 10000
9,CCOC(=O)C1CCN(C(=O)c2cccc(-n3nc4c5cccc(F)c5[nH]cc-4c3=O)c2)CC1 [Example 64],> 10000
10,"CN(C)CCCNC(=O)c1ccc(-n2nc3c4ccccc4[nH]c(C4CC4)c-3c2=O)cc1 [Example 65, N-(3-Dimethylaminopropyl)-4-(4-cyclopropyl-3-oxo-3,5-dihydro-pyrazolo[4,3-c]quinolin-2-yl]-benzamide]",< 1000
11,"CN(C)CCCNC(=O)c1ccc(-n2nc3c4cccc(F)c4[nH]cc-3c2=O)cc1 [Example 66, N-(3-Dimethylaminopropyl)-4-(6-fluoro-3-oxo-3,5-dihydro-pyrazolo[4,3-c]quinolin-2-yl]-benzamide hydrochloride]",< 1000
12,O=C(c1ccc(-n2nc3c4cccc(F)c4[nH]cc-3c2=O)cc1)N1CCCCC1 [Example 67],1000 to 10000
13,O=C(NCc1ccccc1)c1ccc(-n2nc3c4cccc(F)c4[nH]cc-3c2=O)cc1 [Example 68],< 1000
14,CN(C)CCNC(=O)c1ccc(-n2nc3c4cccc(F)c4[nH]cc-3c2=O)cc1 [Example 71],< 1000
15,COC(=O)CNC(=O)c1ccc(-n2nc3c4cccc(F)c4[nH]cc-3c2=O)cc1 [Example 72],< 1000
16,O=C(NCC1CCCCC1)c1ccc(-n2nc3c4cccc(F)c4[nH]cc-3c2=O)cc1 [Example 76],1000 to 10000
17,CN(C)CCCCNC(=O)c1ccc(-n2nc3c4cccc(F)c4[nH]cc-3c2=O)cc1 [Example 81],< 1000
18,O=C(NCCCCN1CCCC1)c1ccc(-n2nc3c4cccc(F)c4[nH]cc-3c2=O)cc1 [Example 82],< 1000
19,O=C(NCCCN1CCCC1)c1ccc(-n2nc3c4cccc(F)c4[nH]cc-3c2=O)cc1 [Example 83],< 1000
20,O=C(NCCN1CCN(Cc2ccccc2)CC1)c1ccc(-n2nc3c4cccc(F)c4[nH]cc-3c2=O)cc1 [Example 84],< 1000
21,CCN(CC)CCCCNC(=O)c1ccc(-n2nc3c4ccccc4[nH]cc-3c2=O)cc1 [Example 88],1000 to 10000

row,SMILES,EC50 [nM]
1,CN(C)CCCN(C)C(=O)c1ccc(-n2nc3c4ccccc4[nH]cc-3c2=O)cc1 [Example 89],1000 to 10000
2,CN(C)CCCNC(=O)c1ccc(-n2nc3c4cccc(F)c4[nH]cc-3c2=O)cc1Cl [Example 90],1000 to 10000
3,O=C(NCCCN1CCN(Cc2c(F)cccc2Cl)CC1)c1ccc(-n2nc3c4ccccc4[nH]cc-3c2=O)cc1 [Example 92],1000 to 10000
4,CCN(CC)CCCC(C)NC(=O)c1ccc(-n2nc3c4cccc(F)c4[nH]cc-3c2=O)cc1 (centres unmarked) [Example 97],< 1000
5,CN1CCN(CCCNC(=O)c2ccc(-n3nc4c5cccc(F)c5[nH]cc-4c3=O)cc2)CC1 [Example 98],< 1000
6,O=C(NCCCCN1CCCC1)c1ccc(-n2nc3c4cccc(F)c4[nH]cc-3c2=O)c(Cl)c1 [Example 99],1000 to 10000
7,CN1CCN(CCCNC(=O)c2ccc(-n3nc4c5cccc(F)c5[nH]cc-4c3=O)cc2Cl)CC1 [Example 100],1000 to 10000
8,CCN(CC)CCCCNC(=O)c1ccc(-n2nc3c4cccc(F)c4[nH]cc-3c2=O)cc1Cl [Example 102],1000 to 10000
9,CN(C)CCCNC(=O)c1ccc(-n2nc3c4cccc(F)c4[nH]cc-3c2=O)c(Cl)c1 [Example 103],1000 to 10000
10,O=C(NCCCCN1CCCC1)c1ccc(-n2nc3c4ccccc4[nH]c(C4CC4)c-3c2=O)cc1 [Example 104],< 1000
11,O=C(c1ccc(-n2nc3c4cccc(F)c4[nH]cc-3c2=O)cc1)N1CCN(Cc2ccc(Cl)cc2)CC1 [Example 105],> 10000
12,CC1CCCCN1CCCNC(=O)c1ccc(-n2nc3c4cccc(F)c4[nH]cc-3c2=O)cc1Cl (centres unmarked) [Example 108],1000 to 10000
13,CN(C)c1ccc(CNC(=O)c2ccc(-n3nc4c5cccc(F)c5[nH]cc-4c3=O)cc2)cc1 [Example 109],< 1000
14,CN1CCN(C(=O)c2ccc(-n3nc4c5cccc(F)c5[nH]cc-4c3=O)cc2)CC1 [Example 111],1000 to 10000
15,CC1CCCCN1CCCNC(=O)c1ccc(-n2nc3c4cccc(F)c4[nH]cc-3c2=O)cc1 (centres unmarked) [Example 112],< 1000
16,O=C(NCCN1CCOCC1)c1ccc(-n2nc3c4cccc(F)c4[nH]cc-3c2=O)cc1 [Example 113],< 1000
17,CCN1CCCC1CNC(=O)c1ccc(-n2nc3c4cccc(F)c4[nH]cc-3c2=O)cc1 (centres unmarked) [Example 114],< 1000
18,CN1C(C)(C)CC(NC(=O)c2ccc(-n3nc4c5cccc(F)c5[nH]cc-4c3=O)cc2)CC1(C)C [Example 115],< 1000
19,CN(C)CC(C)(C)CNC(=O)c1ccc(-n2nc3c4cccc(F)c4[nH]cc-3c2=O)cc1 [Example 117],< 1000
20,CC1(C)CC(NC(=O)c2ccc(-n3nc4c5cccc(F)c5[nH]cc-4c3=O)cc2)CC(C)(C)N1 [Example 118],< 1000
21,CCSCCNC(=O)c1ccc(-n2nc3c4cccc(F)c4[nH]cc-3c2=O)cc1 [Example 120],< 1000

# More lines, now with the values ahead:
row,EC50 [nM],SMILES
1,1000 to 10000,"CCNC(=O)c1cccc(-n2nc3c4cccc(F)c4[nH]cc-3c2=O)c1 [Example 51, N-Ethyl-3-(6-fluoro-3-oxo-3,5-dihydro-pyrazolo[4,3-c]-quinolin-2-yl)-benzamide]"
2,> 10000,O=C(NCCCN1CCCC1)c1cccc(-n2nc3c4cccc(F)c4[nH]cc-3c2=O)c1 [Example 56]
3,1000 to 10000,CN(C)CCCCNC(=O)c1cccc(-n2nc3c4cccc(F)c4[nH]cc-3c2=O)c1 [Example 58]
4,1000 to 10000,COCCNC(=O)c1cccc(-n2nc3c4cccc(F)c4[nH]cc-3c2=O)c1 [Example 59]
5,> 10000,CCN(CC)C(=O)c1cccc(-n2nc3c4cccc(F)c4[nH]cc-3c2=O)c1 [Example 60]
6,1000 to 10000,CN(Cc1ccccc1)C(=O)c1ccc(-n2nc3c4cccc(F)c4[nH]cc-3c2=O)cc1 [Example 69]
7,< 1000,COCCNC(=O)c1ccc(-n2nc3c4cccc(F)c4[nH]cc-3c2=O)cc1 [Example 70]
8,< 1000,COCCCNC(=O)c1ccc(-n2nc3c4cccc(F)c4[nH]cc-3c2=O)cc1 [Example 73]
9,1000 to 10000,O=C(NCCC1=CCCCC1)c1ccc(-n2nc3c4cccc(F)c4[nH]cc-3c2=O)cc1 [Example 75]
10,< 1000,CCNC(=O)c1ccc(-n2nc3c4cccc(F)c4[nH]cc-3c2=O)cc1 [Example 77]
11,1000 to 10000,CCN(CC)C(=O)c1ccc(-n2nc3c4cccc(F)c4[nH]cc-3c2=O)cc1 [Example 78]
12,< 1000,N[C@H]1CC[C@H](NC(=O)c2ccc(-n3nc4c5cccc(F)c5[nH]cc-4c3=O)cc2)CC1 [Example 79]
13,< 1000,CN(C)CCCN(C)C(=O)c1ccc(-n2nc3c4cccc(F)c4[nH]cc-3c2=O)cc1 [Example 80]
14,< 1000,CN(C)CCCNC(=O)c1ccc(-n2nc3c4ccccc4[nH]cc-3c2=O)cc1 [Example 86]
15,1000 to 10000,O=C(NCCCN1CCCC1)c1ccc(-n2nc3c4ccccc4[nH]cc-3c2=O)cc1 [Example 91]
16,1000 to 10000,CN1CCN(CCCNC(=O)c2ccc(-n3nc4c5ccccc5[nH]cc-4c3=O)cc2)CC1 [Example 93]
17,1000 to 10000,O=C(NCCN1CCN(Cc2ccccc2)CC1)c1ccc(-n2nc3c4ccccc4[nH]cc-3c2=O)cc1 [Example 94]
18,< 1000,O=C(NCCCN1CCN(Cc2c(F)cccc2Cl)CC1)c1ccc(-n2nc3c4cccc(F)c4[nH]cc-3c2=O)cc1 [Example 95]
19,< 1000,CN(CCCNC(=O)c1ccc(-n2nc3c4cccc(F)c4[nH]cc-3c2=O)cc1)c1ccccc1 [Example 106]
20,1000 to 10000,CN(C)CCCCNC(=O)c1ccc(-n2nc3c4cccc(F)c4[nH]cc-3c2=O)cc1Cl [Example 110]
21,< 1000,O=C(NC1CCN(Cc2ccccc2)CC1)c1ccc(-n2nc3c4cccc(F)c4[nH]cc-3c2=O)cc1 [Example 116]
22,1000 to 10000,O=C(NCCc1cccnc1)c1ccc(-n2nc3c4cccc(F)c4[nH]cc-3c2=O)cc1 [Example 119]

# Same assay, conditions: read-out: EC50
row,SMILES,EC50 [nM]
1,O=C(NCCCN1CCCC1)c1ccc(-n2nc3c4cccc(F)c4[nH]cc-3c2=O)cc1 [Example 83],90
